Substitutions are numbered along the chain they refer to.
Columns and labels:
[1] = biological target: T1, β-glucocerebrosidase Wild Type (WT) (Homo sapiens, UniProt P04062); assay: β-glucocerebrosidase activity enhancement, Wild Type (WT); format: cell-based; conditions: increase in enzyme activity vs non-treated cells
T1 construct: endogenous in cells
T1 sequence (P04062 40-536): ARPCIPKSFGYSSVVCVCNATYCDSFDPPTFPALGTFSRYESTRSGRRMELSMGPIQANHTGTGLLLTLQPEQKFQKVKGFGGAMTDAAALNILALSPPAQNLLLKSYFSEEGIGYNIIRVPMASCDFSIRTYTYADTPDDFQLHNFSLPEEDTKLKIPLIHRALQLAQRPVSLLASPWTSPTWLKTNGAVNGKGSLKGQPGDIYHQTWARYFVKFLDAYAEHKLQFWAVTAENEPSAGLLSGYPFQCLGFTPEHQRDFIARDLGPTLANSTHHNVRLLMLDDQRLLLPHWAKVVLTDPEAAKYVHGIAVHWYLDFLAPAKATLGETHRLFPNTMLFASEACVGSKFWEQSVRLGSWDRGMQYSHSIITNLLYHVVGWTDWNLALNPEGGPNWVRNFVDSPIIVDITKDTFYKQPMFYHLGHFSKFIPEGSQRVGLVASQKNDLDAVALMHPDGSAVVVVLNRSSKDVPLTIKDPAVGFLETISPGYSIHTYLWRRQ
Protocol: (§1) Fibroblasts were seeded at 5×10^3 cells per well in 96-well cell culture plates (Corning, N.Y., USA) in Dulbecco's Modified Eagle's Media (DMEM) supplemented with 10% of fetal bovine serum (FBS), 1% penicillin/streptomycin (P/S) (Thermo Fisher Scientific, Waltham, Mass., USA) and grown at 37° C., 5% CO2 overnight for cell attachment. Subsequently, cells were incubated in the absence or presence of the compounds at the desired concentration for 4 days. After incubation, cells were washed twice with phosphate-buffered saline (PBS) and enzyme activity assay was performed.
(§2) β-glucocerebrosidase activity in intact cultured cells was measured by using 4-methylumbelliferyl-β-D-glucopyranoside substrate (Apollo Scientific, UK). Briefly, cells were incubated with 4-MU-β-D-glucopyranoside in 0.1 M acetate buffer pH=4 at 37° C. for 1 hour. […] The liberated 4-MU was measured on a GloMax Discover plate reader (Promega, Madison, Wis., USA) with and excitation at 340 nm and emission at 460 nm. Enzyme activities were expressed in treated cells as X-fold increase in comparison with non-treated cells (X=1 represents no enhancement).
(§3) The following compounds listed in Table 2 were purchased (from Enamine, Princeton, Asinex, Vistas-M, and OSSK_541352) and tested in the assay as described above.

[2] = biological target: T2, β-glucocerebrosidase, p.L444P mutation (GM08760A fibroblasts) (Homo sapiens, UniProt P04062, L483P); assay: Enhancement of β-glucocerebrosidase activity measured in Gaucher disease fibroblasts (L444P); format: cell-based; conditions: increase in enzyme activity vs non-treated cells; GBA fibroblasts bearing L444P; concentrations between 6 and 50 μM; 4 days incubation
T2 construct: host or cells: human Gaucher patient fibroblasts GM08760A, homozygous L444P
T2 sequence (P04062 40-536 L483P): T1 sequence (P04062 40-536) with L444P
Protocol: Enhancement of β-Glucocerebrosidase Activity Measured in Gaucher Disease Fibroblasts Materials
Human fibroblasts from a patient with Gaucher disease homozygous for p.L444P mutation (GM08760A) were purchased from Coriell Institute for Medical Research (Camden, N.J., USA).
as §1, §2
The capacity of the compounds of the disclosure to produce an increase in enzyme activity in GBA fibroblasts bearing L444P at concentrations between 6 and 50 μM is denoted as follows:
as §3

| Compound | Activity Wild Type (WT) [1] | Activity L444P [2] |
| --- | --- | --- |
| CN(Cc1ccccc1)Cc1nc(N)nc(Nc2cccc(Br)c2)n1 [Example 8] | B (Increase in comparison with non-treated of >1.7-2.0 fold is shown as B) | B (Increase in comparison with non-treated of >1.7-2.0 fold is shown as B) |
| COc1cccc(Nc2nc(N)nc(CN(C)Cc3ccccc3)n2)c1 [Example 9] | B (Increase in comparison with non-treated of >1.7-2.0 fold is shown as B) | C (Increase in comparison with non-treated of 1.2-1.7 fold is shown as C) |
| COc1ccccc1Nc1nc(N)nc(CN(C)Cc2ccccc2)n1 [Example 10, 6-((Benzyl (methyl)amino)methyl)-N^2-(2-methoxyphenyl)-1,3,5-triazine-2,4-diamine] | B (Increase in comparison with non-treated of >1.7-2.0 fold is shown as B) | C (Increase in comparison with non-treated of 1.2-1.7 fold is shown as C) |
| CN(Cc1ccccc1)Cc1nc(N)nc(Nc2cccc(C#N)c2)n1 [Example 12, 3-(4-Amino-6-((benzyl(methyl)amino)methyl)-1,3,5-triazin-2-ylamino)benzonitrile] | B (Increase in comparison with non-treated of >1.7-2.0 fold is shown as B) | C (Increase in comparison with non-treated of 1.2-1.7 fold is shown as C) |
| Cc1ccc(Nc2cc(CN(C)c3ccccc3)nc(N)n2)cc1 [Example 13, 6-((Methyl(phenyl)amino)methyl)-N^4-(p-tolyl)pyrimidine-2,4-diamine] | B (Increase in comparison with non-treated of >1.7-2.0 fold is shown as B) | B (Increase in comparison with non-treated of >1.7-2.0 fold is shown as B) |
| Cc1ccc(Nc2cc(CN3CCCc4ccccc43)nc(N)n2)cc1 [Example 14, 6-((3,4-Dihydroquinolin-1(2H)-yl)methyl)-N^4-(p-tolyl)pyrimidine-2,4-diamine] | B (Increase in comparison with non-treated of >1.7-2.0 fold is shown as B) | C (Increase in comparison with non-treated of 1.2-1.7 fold is shown as C) |
| Cc1cccc(Nc2cc(CN(C)Cc3ccccc3)nc(N)n2)c1 [Example 16] | A (Increase in comparison with non-treated of >2.0 fold is shown as A) | B (Increase in comparison with non-treated of >1.7-2.0 fold is shown as B) |
| COc1ccc(Nc2cc(CN(C)Cc3ccccc3)nc(N)n2)cc1 [Example 18, 6-((benzyl(methyl)amino)methyl)-N^4-(4-methoxyphenyl)pyrimidine-2,4-diamine] | B (Increase in comparison with non-treated of >1.7-2.0 fold is shown as B) | B (Increase in comparison with non-treated of >1.7-2.0 fold is shown as B) |
| CN(Cc1ccccc1)Cc1cc(Nc2ccc(C#N)cc2)nc(N)n1 [Example 19, 4-(2-amino-6-((benzyl(methyl)amino)methyl)pyrimidin-4-ylamino)benzonitrile] | B (Increase in comparison with non-treated of >1.7-2.0 fold is shown as B) | B (Increase in comparison with non-treated of >1.7-2.0 fold is shown as B) |
| CN(Cc1ccccc1)Cc1cc(Nc2cccc(Cl)c2)nc(N)n1 [Example 20] | B (Increase in comparison with non-treated of >1.7-2.0 fold is shown as B) | B (Increase in comparison with non-treated of >1.7-2.0 fold is shown as B) |
| CN(Cc1ccccc1)Cc1nc(N)nc(Nc2cccnc2)n1 [Example 26, 6-((Benzyl(methyl)amino)methyl)-N^2-(pyridin-3-yl)-1,3,5-triazine-2,4-diamine] | B (Increase in comparison with non-treated of >1.7-2.0 fold is shown as B) | C (Increase in comparison with non-treated of 1.2-1.7 fold is shown as C) |
| Cc1ccccc1Nc1cc(CN(C)Cc2ccccc2)nc(N)n1 [Example 28, 6-((Benzyl(methyl)amino)methyl)-N^4-o-tolylpyrimidine-2,4-diamine] | B (Increase in comparison with non-treated of >1.7-2.0 fold is shown as B) | B (Increase in comparison with non-treated of >1.7-2.0 fold is shown as B) |
| CN(Cc1ccccc1)Cc1cc(Nc2ccc3ccncc3c2)nc(N)n1 [Example 30, 6-((Benzyl(methyl)amino)methyl)-N^4-(isoquinolin-7-yl)pyrimidine-2,4-diamine] | B (Increase in comparison with non-treated of >1.7-2.0 fold is shown as B) | A (Increase in comparison with non-treated of >2.0 fold is shown as A) |
| COc1ccc(CN(C)Cc2cc(Nc3ccc(C)cc3)nc(N)n2)cc1 [Example 33, 6-(((4-Methoxybenzyl)(methyl)amino)methyl)-N^4-p-tolylpyrimidine-2,4-diamine] | B (Increase in comparison with non-treated of >1.7-2.0 fold is shown as B) | B (Increase in comparison with non-treated of >1.7-2.0 fold is shown as B) |
| COc1cccc(Nc2cc(CN(C)Cc3cccc(C#N)c3)nc(N)n2)c1 [Example 37, 3-((((2-Amino-6-(3-methoxyphenylamino)pyrimidin-4-yl)methyl)(methyl)amino)methyl) benzonitrile] | B (Increase in comparison with non-treated of >1.7-2.0 fold is shown as B) | C (Increase in comparison with non-treated of 1.2-1.7 fold is shown as C) |
| COc1ccc(OC)c(Nc2cc(CN(C)Cc3ccccc3)nc(N)n2)c1 [Example 41, 6-((Benzyl(methyl)amino)methyl)-N^4-(2,5-dimethoxyphenyl)pyrimidine-2,4-diamine] | C (Increase in comparison with non-treated of 1.2-1.7 fold is shown as C) | B (Increase in comparison with non-treated of >1.7-2.0 fold is shown as B) |
| COc1cccc(Nc2cc(CN(C)Cc3ccccc3)nc(N)n2)c1OC [Example 42, 6-((Benzyl(methyl)amino)methyl)-N^4-(2,3-dimethoxyphenyl)pyrimidine-2,4-diamine] | B (Increase in comparison with non-treated of >1.7-2.0 fold is shown as B) | C (Increase in comparison with non-treated of 1.2-1.7 fold is shown as C) |
| CN(Cc1ccccc1)Cc1cc(Nc2cccc3c2OCO3)nc(N)n1 [Example 43, N^4-(Benzo[d][1,3]dioxol-4-yl)-6-((benzyl(methyl)amino)methyl)pyrimidine-2,4-diamine] | C (Increase in comparison with non-treated of 1.2-1.7 fold is shown as C) | C (Increase in comparison with non-treated of 1.2-1.7 fold is shown as C) |
| COc1cccc(Nc2cc(CN(C)Cc3ccc(F)cc3)nc(N)n2)c1 [Example 45, 6-(((4-Fluorobenzyl)(methyl)amino)methyl)-N^4-(3-methoxyphenyl)pyrimidine-2,4-diamine] | C (Increase in comparison with non-treated of 1.2-1.7 fold is shown as C) | C (Increase in comparison with non-treated of 1.2-1.7 fold is shown as C) |

— US11174242B2, “Heteroaryl compounds and their use” (Minoryx Therapeutics S.L., priority 2016, dated 2021)
